Where two headings read alike, the source gives them in different places.
Legend:
rat striatum = experiment: MRI of rat striatum injected with NMDA; type: in vivo
Experimental: T-2 weighted MRI photos of transverse brain 3-mm thick slices were performed (TR/TE=7400/115 ms; matrix 483×1024; FLV 250). Magnetic resonance images were acquired using 1.5 T scanner (Vision, Siemens-Erlangen). […] All animals survived the surgery and continued to receive treatment for an additional three days, at which time they were sacrificed and tissues were collected as described above.

mice [1] = experiment: Prophylaxis of age-induced memory deficit (win-shift, monthly); type: in vivo; conditions: 30 mg/kg/day in drinking water from 14 months of age
Experimental: It has been observed that age-induced memory deficits typically begin to manifest themselves in mice between 14 and 16 months of age. Therefore, the treatment of mice was begun at 14 months of age with AIT-082 (30 mg/kg/day) in their drinking water. The animals were measured monthly for their memory using the win-shift foraging tests previously described.

NT-3 mRNA [2] = experiment: Northern blot of neurotrophin mRNA from astrocytes: NT-3; type: cell-based, NIH Swiss mice; parameters: key: The conditions which produced a detectable amount of each of the neurotrophin mRNAs are indicated by a “+”; a “++” indicating that at least twice the detectable amount was present; Those blots which were negative are indicated by a “−”; conditions: 24 hours
Experimental: Induction of neurotrophin mRNA was determined by northern blot analysis of astrocytes cultured with AIT-082, NGF, or both. The cells were harvested and RNA extracted at 24 hours after treatment.
More particularly, astrocytes from the cerebral cortex of NIH Swiss mice (Harlan) were isolated. Briefly, newborn pups (0-24 hours) were decapitated. Their brains were removed under aseptic conditions and were placed in modified Dulbecco's medium (DMEM) containing 20% heat-inactivated horse serum (Hyclone) (“complete medium”). The neopallium was then dissected from each cerebral hemisphere and minced into 1 mm cubes.
The astrocytes were then isolated by mechanical dissociation. The cubes were vortexed at maximum speed for one minute. The cell suspension was then passed first through 75 mm Nitex then through 10 mm Nitex. The resulting cell suspension was diluted in complete medium to a final concentration of one brain per 10 ml of complete medium. Ten milliliters of the diluted cell suspension was added to each 100 mm Falcon tissue culture plate (Fisher). After 3 days the medium was replaced with 10 ml fresh complete medium and subsequently was replaced twice weekly with DMEM containing 10% heat inactivated horse serum (“growth medium”). After two weeks in culture the astrocytes formed a confluent monolayer.
For RNA extraction, astrocytes were trypsinized. The astrocytes were then replated onto 100 mm PORN coated plates at a cell density of 10^6 cells per plate (10 ml growth medium). […]
The blots were probed with ^32P-labeled cDNA (NGF, NT-3 and BDNF probes) or oligonucleotide probe (FGF-2) by hybridization in Piperazine-N,N′-bis-(2-ethanesulfonic acid) (PIPES) buffer (50 mM PIPES, pH 6.8; 50 mM NaH2PO4; 0.1 M NaCl; 5% SDS and 1 mM EDTA) overnight at 50° C. […] Various concentrations ([…] of total RNA), as determined by spectrophotometry, of each sample were blotted and probed so that quantification could be done after insuring a linear film response. Quantification was performed using MCID Image Analysis (St. Catherine's, Ontario, Canada). […]

mice [3] = conditions: oral or intraperitoneal route, preliminary
NT-3 mRNA [4] = experiment: RT-PCR of growth factor mRNA after T8 spinal cord hemisection: NT-3; type: in vivo, Wistar rats
acetylcholine receptors = type: binding, mice; conditions: for number of receptors (B max): mice treated 30 mg/kg 2 hours prior to sacrifice
BDNF = experiment: Summary of effects on growth factor mRNA and protein (Table R): BDNF; parameters: key: ± = mRNA; + = protein; nt = not tested
Text: The constellation of effects of AIT-082 on production of mRNA encoding growth factors and on production of growth factor proteins is shown in Table R. The results summarized in […] show both transcriptional and translational effects on growth factors that are in the categories of neurotrophins, pleiotrophins, members of the S100 family of EF hand calcium binding proteins, and members of the TGFβ superfamily. As indicated, effects have been shown at both the mRNA (transcriptional) and protein (translational) levels.

SMILES: O=C(CCn1cnc2c(=O)[nH]cnc21)Nc1ccc(C(=O)O)cc1 [AIT-082, N-4-carboxyphenyl-3-(6-oxohydropurin-9-yl)propanamide]
- MRI brightness of the lesion (rat striatum; AIT locally co-injected with NMDA): disappeared
- MRI brightness of the lesion (rat striatum; systemic (intraperitoneal) AIT-082 60 mg/kg): significantly reduced
- onset and severity of age-induced memory deficits (mice [1]): delayed the onset and severity of memory deficits
- NT-3 mRNA (NT-3 mRNA [2]; AIT-082 100 mM): ++
- NT-3 mRNA (NT-3 mRNA [2]; AIT-082 + NGF (40 ng/ml)): +
- LD50 (mice [3]): > 3000 mg/kg
- NT-3 mRNA level (NT-3 mRNA [4]; at the level of the lesion): no significant differences
- NT-3 mRNA level (NT-3 mRNA [4]; caudal to lesion, 7 days): no significant effects
- NT-3 mRNA level (NT-3 mRNA [4]; caudal to lesion, control animals, 3 days): decreased
- affinity (Kd) for QNB (acetylcholine receptors): no effect
- number of receptors (B max) (acetylcholine receptors; cortex): decrease
- number of receptors (B max) (acetylcholine receptors; striatum): increase
- BDNF, effect on mRNA/protein production (BDNF; Aged Brain): +
- BDNF, effect on mRNA/protein production (BDNF; Lesioned Spinal Cord): ±
- BDNF, effect on mRNA/protein production (BDNF; Normal Brain): +
- BDNF, effect on mRNA/protein production (BDNF; Normal Spinal Cord): +

Source: US6338963B1, “Use of carbon monoxide dependent guanylyl cyclase modifiers to stimulate neuritogenesis” (NeoTherapeutics, Inc., priority 1994, dated 2002)
